ChEMBL document CHEMBL2321706, “Structure-activity relationship of benzodiazepine derivatives as LXXLL peptide mimetics that inhibit the interaction of vitamin D receptor with coactivators” (Bioorg Med Chem, 2013)
Active and inactive are the calls of the source. The rule behind the calls is not given here.

Columns and labels:
Assay type in all cases: cell-based
[1] = target: T1, Vitamin D3 receptor (Homo sapiens) (UniProt P11473); experiment: Inhibition of human recombinant GAL4N-fused VDR LBD expressed in HEK293 cells using 1,25(OH)2D3 as substrate assessed as inhibition of cofactor interaction at 30 uM after 16 to 18 hrs by luciferase reporter gene assay relative to control
T1 sequence (whole entry): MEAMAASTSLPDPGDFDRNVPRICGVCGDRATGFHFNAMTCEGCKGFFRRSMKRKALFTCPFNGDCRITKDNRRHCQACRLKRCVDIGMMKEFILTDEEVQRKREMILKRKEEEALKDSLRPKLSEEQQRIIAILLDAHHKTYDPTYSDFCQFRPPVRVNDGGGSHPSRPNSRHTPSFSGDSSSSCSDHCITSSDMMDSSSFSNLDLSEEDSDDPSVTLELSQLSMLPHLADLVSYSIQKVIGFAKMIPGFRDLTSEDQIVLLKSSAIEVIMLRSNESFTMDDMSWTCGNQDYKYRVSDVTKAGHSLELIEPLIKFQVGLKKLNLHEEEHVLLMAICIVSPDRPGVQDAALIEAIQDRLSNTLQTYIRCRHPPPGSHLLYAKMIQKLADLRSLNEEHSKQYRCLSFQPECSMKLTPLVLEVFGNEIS

Vitamin D3 receptor = target: T2, Vitamin D3 receptor (Homo sapiens, UniProt P11473); experiment: Inhibition of human recombinant GAL4N-fused VDR LBD expressed in HEK293 cells using 1,25(OH)2D3 as substrate assessed as inhibition of cofactor interaction after 16 to 18 hrs by luciferase reporter gene assay
T2 sequence (P11473 whole entry): T1 sequence (whole entry)

HEK293 = experiment: Cytotoxicity to human HEK293 cells at 30 uM after 16 to 18 hrs; conditions: hek293, 30 µM

Compound | inhibition [1] | IC50 (Vitamin D3 receptor) [µM] | Activity (HEK293)
CC/C=C/c1ccc2c(c1)CN(CCC(C)C)C(=O)[C@H](CC(C)C)N2 | inactive | – | –
CC(C)CCN1Cc2ccccc2N[C@@H](CC(C)C)C1=O | 29% | > 30 | –
CC(C)CCN1Cc2ccc(N)cc2N[C@@H](CC(C)C)C1=O | 7% | > 30 | –
CC(C)CCN1Cc2cc(/C=C/CO)ccc2N[C@@H](CC(C)C)C1=O | 27% | > 30 | –
CC(C)CCN1Cc2cc(CCCCO)ccc2N[C@@H](CC(C)C)C1=O | inactive | – | –
CC(C)CCN1Cc2cc(I)ccc2N[C@@H](CC(C)C)C1=O | 30% | > 30 | –
CC(C)CCN1Cc2cc(I)c(N)cc2N[C@@H](CC(C)C)C1=O | – | 30 | –
CCC/C=C/c1cc2c(cc1N)N[C@@H](CC(C)C)C(=O)N(CCC(C)C)C2 | – | – | Toxic
CC(C)CCN1Cc2cc(CC(C)C)ccc2N[C@@H](CC(C)C)C1=O | 45% | > 30 | –
CC(C)=Cc1ccc2c(c1)CN(CCC(C)C)C(=O)[C@H](CC(C)C)N2 | inactive | – | –

More lines, main results first:

inhibition [1] | IC50 (Vitamin D3 receptor) [µM] | Compound | Activity (HEK293)
9% | > 30 | CC(C)CCN1Cc2cc(CCCO)ccc2N[C@@H](CC(C)C)C1=O | –
– | 26 | CC(C)=Cc1cc2c(cc1N)N[C@@H](CC(C)C)C(=O)N(CCC(C)C)C2 | –
47% | > 30 | CCCCCc1cc2c(cc1N)N[C@@H](CC(C)C)C(=O)N(CCC(C)C)C2 | –
– | 24 | CC(C)CCN1Cc2cc(-c3ccccc3)c(N)cc2N[C@@H](CC(C)C)C1=O | –
28% | > 30 | CC(C)CCN1Cc2cc(/C=C/CCO)ccc2N[C@@H](CC(C)C)C1=O | –
– | 14 | CCOC(=O)c1ccc(-c2cc3c(cc2N)N[C@@H](CC(C)C)C(=O)N(CCC(C)C)C3)cc1 | –
– | 25 | CCCCc1cc2c(cc1N)N[C@@H](CC(C)C)C(=O)N(CCC(C)C)C2 | –
32% | > 30 | C=C(CC)c1ccc2c(c1)CN(CCC(C)C)C(=O)[C@H](CC(C)C)N2 | –
– | 20 | CCOC(=O)c1ccc(-c2cc3c(cc2N)N[C@@H](CC(C)C)C(=O)N(CCC(C)C)C3)c(OCCO)c1 | –
48% | > 30 | CC/C=C/c1cc2c(cc1N)N[C@@H](CC(C)C)C(=O)N(CCC(C)C)C2 | –
8% | > 30 | CC(C)CCN1Cc2cc(-c3ccc(C(=O)O)cc3)c(N)cc2N[C@@H](CC(C)C)C1=O | –
